18 compounds from patent publication US9656959B2, “Substituted pyridines as sodium channel blockers” (Purdue Pharma L.P., priority 2010, dated 2017) can be followed below.

Like-named read-outs stand apart in the source and are kept apart here.

The target of one assay is hNav1.7 (Homo sapiens (Human), UniProt Q15858). In words: Electrophysiology (EP) assay, whole-cell patch clamp. Type of assay: cell-based. The following applies: hNav1.7 HEK-293 cells; for Ki: affinity for the inactivated state of the channel, read-out: Nav1.7 Activity (μM) EP assay Ki; for Kd: resting block dissociation constant, read-out: Nav1.7 Activity (μM) EP assay Kr. The procedure: The hNav1.7 expressing HEK-293 cells were plated on 35 mm culture dishes pre-coated with poly-D-lysine in standard DMEM culture media (Mediatech, Inc., Herndon, Va.) and incubated in a 5% CO2 incubator at 37° C. Cultured cells were used approximately 12-48 hours after plating.
Sequence of hNav1.7 (Q15858 other isoform, or with tags, fused parts or gaps): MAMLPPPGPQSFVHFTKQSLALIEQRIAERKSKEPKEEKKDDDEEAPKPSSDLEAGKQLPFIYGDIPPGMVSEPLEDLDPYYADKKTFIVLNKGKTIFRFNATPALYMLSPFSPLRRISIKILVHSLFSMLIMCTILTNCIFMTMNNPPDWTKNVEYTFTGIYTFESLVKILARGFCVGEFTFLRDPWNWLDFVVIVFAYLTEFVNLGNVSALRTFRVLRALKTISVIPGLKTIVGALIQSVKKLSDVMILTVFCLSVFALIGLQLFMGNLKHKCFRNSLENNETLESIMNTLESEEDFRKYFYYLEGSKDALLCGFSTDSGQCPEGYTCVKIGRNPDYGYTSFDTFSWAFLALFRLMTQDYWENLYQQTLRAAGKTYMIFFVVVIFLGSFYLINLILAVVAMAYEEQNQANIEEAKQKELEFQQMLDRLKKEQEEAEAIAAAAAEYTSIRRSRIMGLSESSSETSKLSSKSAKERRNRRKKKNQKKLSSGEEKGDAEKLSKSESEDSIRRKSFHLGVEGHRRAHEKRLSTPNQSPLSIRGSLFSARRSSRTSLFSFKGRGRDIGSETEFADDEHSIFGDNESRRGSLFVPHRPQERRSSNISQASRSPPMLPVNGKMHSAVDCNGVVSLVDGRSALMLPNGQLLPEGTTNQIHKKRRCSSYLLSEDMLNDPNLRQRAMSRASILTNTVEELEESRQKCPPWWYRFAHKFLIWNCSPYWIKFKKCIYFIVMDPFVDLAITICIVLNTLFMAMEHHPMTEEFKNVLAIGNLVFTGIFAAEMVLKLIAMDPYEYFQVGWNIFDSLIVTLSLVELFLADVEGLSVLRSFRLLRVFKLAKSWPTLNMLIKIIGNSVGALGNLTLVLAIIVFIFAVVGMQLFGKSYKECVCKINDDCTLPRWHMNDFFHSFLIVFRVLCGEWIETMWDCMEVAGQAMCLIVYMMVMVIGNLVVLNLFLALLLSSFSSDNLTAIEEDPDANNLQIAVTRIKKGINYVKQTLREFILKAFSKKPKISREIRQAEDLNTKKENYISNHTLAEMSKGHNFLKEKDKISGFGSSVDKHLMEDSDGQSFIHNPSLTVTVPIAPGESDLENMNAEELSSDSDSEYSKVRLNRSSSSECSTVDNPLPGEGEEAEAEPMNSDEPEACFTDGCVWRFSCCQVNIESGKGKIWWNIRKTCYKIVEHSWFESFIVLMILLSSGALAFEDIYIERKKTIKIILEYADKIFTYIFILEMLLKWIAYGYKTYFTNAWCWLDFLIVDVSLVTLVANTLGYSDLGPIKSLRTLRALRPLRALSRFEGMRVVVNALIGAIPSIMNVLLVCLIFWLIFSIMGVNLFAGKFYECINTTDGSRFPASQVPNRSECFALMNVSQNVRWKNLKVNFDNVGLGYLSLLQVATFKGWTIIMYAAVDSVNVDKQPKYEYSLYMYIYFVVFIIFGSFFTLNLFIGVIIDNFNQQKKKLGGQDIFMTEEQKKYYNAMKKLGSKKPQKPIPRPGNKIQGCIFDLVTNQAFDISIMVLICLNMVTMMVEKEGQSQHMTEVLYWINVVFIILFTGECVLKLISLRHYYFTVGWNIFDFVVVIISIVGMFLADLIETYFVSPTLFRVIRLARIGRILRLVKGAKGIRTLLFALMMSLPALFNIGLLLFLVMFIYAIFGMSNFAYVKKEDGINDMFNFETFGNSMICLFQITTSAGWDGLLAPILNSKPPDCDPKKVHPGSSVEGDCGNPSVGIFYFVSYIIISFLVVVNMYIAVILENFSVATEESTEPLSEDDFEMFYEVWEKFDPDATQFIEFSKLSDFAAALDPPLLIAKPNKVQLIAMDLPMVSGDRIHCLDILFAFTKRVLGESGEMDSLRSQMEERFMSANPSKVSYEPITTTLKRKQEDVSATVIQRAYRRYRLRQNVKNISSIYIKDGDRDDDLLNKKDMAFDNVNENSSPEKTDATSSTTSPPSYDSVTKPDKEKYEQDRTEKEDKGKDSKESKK
On the day of experimentation, the 35 mm dish was placed on the stage of an inverted microscope equipped with a perfusion system that continuously perfuses the culture dish with fresh recording media. A gravity driven superfusion system was used to apply test solutions directly to the cell under evaluation. This system consists of an array of glass pipette connected to a motorized horizontal translator. The outlet of the shooter was positioned approximately 100 μm from the cell of interest.
Whole cell currents were recorded using the whole-cell patch clamp configuration using an Axopatch 200B amplifier (Axon Instruments, Foster City Calif.), 1322A A/D converter (Axon Instruments) and pClamp software (v. 8; Axon Instruments) and stored on a personal computer. Gigaseals were formed and the whole-cell configuration was established in voltage clamp mode, and membrane currents generated by hNav1.7 were recorded in gap-free mode. Borosilicate glass pipettes have resistance values between 1.5 and 2.0 MΩ when filled with pipette solution and series resistance (<5 MΩ) was compensated 75-80%. Signals were sampled at 50 kHz and low pass filtered at 3 kHz.
After establishing the whole-cell configuration in voltage clamp mode, voltage protocols were run to establish the 1) test potential, 2) holding potential, and 3) the conditioning potential for each cell.
After establishing the whole-cell configuration in voltage clamp mode, a standard I-V protocol was run to determine the potential at which the maximal current (Imax) is elicited. This potential was the test potential (Vt). […] This protocol also permitted determination of the holding potential at which all channels are in the resting state.
For compounds causing significant retardation of recovery from inactivation, an estimate of the affinity for the inactivated state of the channel (Ki) was generated using the following protocol. From the negative, no residual inactivation, holding potential, the cell was depolarized to the conditioning voltage for 2-5 seconds, returned to the negative holding potential for 10-20 ms to relieve fast inactivation and then depolarized to the test potential for ˜15 ms. This voltage protocol was repeated every 10-15 seconds, first to establish a baseline in the absence of the test compound, then in the presence of the test compound.
After a stable baseline was established, the test compound was applied and block of the current elicited by the test pulse assessed. In some cases, multiple cumulative concentrations were applied to identify a concentration that blocked between 40-60% of this current. Washout of the compound was attempted by superfusing with control solution once steady-state block was observed. An estimate of the K, was calculated as follows: Ki=[drug]*{FR/(1−FR)}, Eq. 1
where [drug] is the concentration of a drug, and FR=I(after drug)/I(control), Eq. 2 where I is the peak current amplitude. If multiple concentrations were used, Ki was determined from the fit of a logistic equation to FRs plotted against corresponding drug concentrations.
In the alternative, the voltage clamp protocol to examine hNav1.7 currents was as follows. First, the standard current-voltage relationship was tested by pulsing the cell from the holding voltage (Vh) of −120 mV by a series of 5 msec long square-shaped test pulses incrementing in +10 mV steps over the membrane voltage range of −90 mV to +60 mV at the pace of stimulation of 0.5 Hz. This procedure determines the voltage that elicits the maximal current (Vmax). […]

The target of another assay is human Nav1.7 (Homo sapiens (Human), UniProt Q15858). In words: FLIPR or FLIPR TETRA sodium dye assay with KCl and test article pre-incubation. Type of assay: cell-based.
Sequence of human Nav1.7 (Q15858 with tags, fused parts or gaps limits assumed): as the sequence (Q15858 other isoform, or with tags, fused parts or gaps) above
[1] abbreviates: recombinant Nav1.7/HEK293 cells, CoroNa Green sodium dye, veratridine + scorpion venom agonists, ± SEM.
[2] abbreviates: read-out: Nav1.7 Activity (μM) FLIPR assay IC50 (μM) ± SEM.

For the compound `CC(C)C[C@H](NC(=O)NC(C)(C)C)C(=O)Nc1cccc(-c2ccc(Oc3ccc(F)cc3)cc2)n1` [Compound 13, (S)-2-(3-(tert-butyl)ureido)-N-(6-(4-(4-fluorophenoxy)phenyl)pyridin-2-yl)-4-methylpentanamide], at hNav1.7, the Ki came out at 0.075 ± 0.02 µM and the Kd amounted to 10.2 ± 0.2 µM. In addition, the IC50 at human Nav1.7 (setting [1]) was determined as 0.075 ± 0.017 µM.

For the compound `CC(=O)N[C@@H](Cc1c[nH]cn1)C(=O)Nc1cccc(-c2ccc(Oc3ccc(F)cc3)cc2)n1` [Compound 32, (S)-2-acetamido-N-(6-(4-(4-fluorophenoxy)phenyl)pyridin-2-yl)-3-(1H-imidazol-4-yl)propanamide], at hNav1.7, the Ki was determined as 0.025 µM and the Kd was found to be 0.58 ± 0.1 µM. Further, the half-inhibitory concentration (IC50) on human Nav1.7 (setting [2]) was 0.086 ± 0.02 µM.

Regarding `CS(=O)(=O)N[C@@H](Cc1c[nH]cn1)C(=O)Nc1cccc(-c2ccc(Oc3ccc(F)cc3)cc2)n1` [Compound 38, (S)-N-(6-(4-(4-fluorophenoxy)phenyl)pyridin-2-yl)-3-(1H-imidazol-4-yl)-2-(methylsulfonamido)propanamide], at hNav1.7, the Ki came out at 0.019 ± 0.01 µM and the Kd was found to be 1.2 ± 0.31 µM. In addition, the half-maximal inhibitory concentration (IC50) at human Nav1.7 (setting [2]) came out at 0.14 ± 0.03 µM.

On to `N[C@@H](CO)C(=O)Nc1cccc(-c2ccc(Oc3ccc(F)cc3)cc2)n1` [Compound 70, (S)-2-Amino-N-{6-[4-(4-fluoro-phenoxy)-phenyl]-pridin-2-yl}-3-hydroxy-propionamide], for which, at hNav1.7, the Ki came to 0.046 µM and the Kd came out at 0.803 ± 0.2 µM. Also, the IC50 at human Nav1.7 (setting [1]) worked out at 0.27 ± 0.032 µM.

For `CC(C)C[C@H](NC(=O)c1ccccn1)C(=O)Nc1cccc(-c2ccc(Oc3ccc(F)cc3)cc2)n1` [Compound 7, (S)-N-(1-((6-(4-(4-fluorophenoxy)phenyl)pyridin-2-yl)amino)-4-methyl-1-oxopentan-2-yl)picolinamide], on hNav1.7, the Ki stood at 0.059 ± 0.01 µM and the Kd was determined as 18 ± 1 µM. In addition, at human Nav1.7 (setting [2]), the half-maximal inhibitory concentration (IC50) is 0.067 ± 0.007 µM.

Consider `CC(C)C[C@H](NC(N)=O)C(=O)Nc1cccc(-c2ccc(Oc3ccc(F)cc3)cc2)n1` [Compound 12, (S)-N-(6-(4-(4-fluorophenoxy)phenyl)pyridin-2-yl)-4-methyl-2-ureidopentanamide], for which, at hNav1.7, the Ki turned out to be 0.257 ± 0.06 µM and the Kd is 5.06 µM. In addition, the IC50 at human Nav1.7 (setting [1]) was 0.096 ± 0.004 µM.

With `O=C(N[C@@H](CO)C(=O)Nc1cccc(-c2ccc(Oc3ccc(F)cc3)cc2)n1)c1cccnc1` [Compound 56, N-((S)-1-{6-[4-(4-Fluoro-phenoxy)-phenyl]-pyridin-2-ylcarbamoyl}-2-hydroxy-ethyl)-nicotinamide], at hNav1.7, the Ki is 0.195 ± 0.07 µM and the Kd is 32.2 ± 8.38 µM. Also, at human Nav1.7 (setting [2]), the IC50 was 0.14 ± 0.05 µM.

`O=C(N[C@@H](Cc1c[nH]cn1)C(=O)Nc1cccc(-c2ccc(Oc3ccc(F)cc3)cc2)n1)C1CC1` [Compound 33, (S)-N-(1-((6-(4-(4-fluorophenoxy)phenyl)pyridin-2-yl)amino)-3-(1H-imidazol-4-yl)-1-oxopropan-2-yl)cyclopropanecarboxamide]: on hNav1.7, the Ki amounted to 0.206 ± 0.04 µM and the Kd was found to be 5.31 ± 0.56 µM. In addition, the half-maximal inhibitory concentration (IC50) on human Nav1.7 (setting [2]) is 0.11 ± 0.02 µM.

Take `O=C(Nc1cccc(-c2ccc(Oc3ccc(F)cc3)cc2)n1)C(O)CO` (centres unmarked) [Compound 72, N-(6-(4-(4-fluorophenoxy)phenyl)pyridin-2-yl)-2,3-dihydroxypropanamide]: on hNav1.7, the Ki came to 0.143 ± 0.03 µM and the Kd was determined as 8.91 ± 1.21 µM. Also, on human Nav1.7 (setting [1]), the IC50 stood at 0.074 µM.

For `CC(=O)N[C@@H](Cc1ccccc1)C(=O)Nc1cccc(-c2ccc(Oc3ccc(F)cc3)cc2)n1` [Compound 4, (S)-2-acetamido-N-(6-(4-(4-fluorophenoxy)phenyl)pyridin-2-yl)-3-phenylpropanamide], the Ki on hNav1.7 was found to be 0.13 ± 0.03 µM. For the same compound, the half-maximal inhibitory concentration (IC50) at human Nav1.7 (setting [1]) was 0.064 ± 0.02 µM.

On to `O=C1NCCN1CCNc1cc([C@H](O)CO)cc(-c2ccc(Oc3ccc(F)cc3)cc2)n1` [Compound 66, (S)-1-(2-((4-(1,2-dihydroxyethyl)-6-(4-(4-fluorophenoxy)phenyl)pyridin-2-yl)amino)ethyl)imidazolidin-2-one], for which the Ki on hNav1.7 is 1.37 ± 0.17 µM. Also, on human Nav1.7 (setting [1]), the IC50 came out at 5 ± 0.88 µM.

On to `Cc1cc(C(=O)N[C@@H](CO)C(=O)Nc2cccc(-c3ccc(Oc4ccc(F)cc4)cc3)n2)no1` [Compound 58, 5-Methyl-isoxazole-3-carboxylic acid ((S)-1-{6-[4-(4-fluoro-phenoxy)-phenyl]-pyridin-2-ylcarbamoyl}-2-hydroxy-ethyl)-amide], for which, on human Nav1.7 (setting [2]), the IC50 amounted to 0.11 ± 0.04 µM.

`CC(=O)N[C@@H](CC(C)C)C(=O)Nc1cccc(-c2ccc(Oc3ccc(F)cc3)cc2)n1` [Compound 3, (S)-2-acetamido-N-(6-(4-(4-fluorophenoxy)phenyl)pyridin-2-yl)-4-methylpentanamide]: the Ki on hNav1.7 amounted to 0.194 ± 0.07 µM. Further, the IC50 on human Nav1.7 (setting [1]) is 0.042 ± 0.02 µM.

Consider `CC(C)(C)OC(=O)N[C@@H](CC(N)=O)C(=O)Nc1cccc(-c2ccc(Oc3ccc(F)cc3)cc2)n1` [Compound 41, (S)-tert-butyl (4-amino-1-((6-(4-(4-fluorophenoxy)phenyl)pyridin-2-yl)amino)-1,4-dioxobutan-2-yl)carbamate], for which the IC50 at human Nav1.7 (setting [2]) was 0.066 ± 0.008 µM.

With `CC(C)C(=O)N[C@@H](Cc1cn(C)cn1)C(=O)Nc1cccc(-c2ccc(Oc3ccc(F)cc3)cc2)n1` [Compound 82, (S)-N-(6-(4-(4-fluorophenoxy)phenyl)pyridin-2-yl)-2-isobutyramido-3-(1-methyl-1H-imidazol-4-yl)propanamide], on human Nav1.7 (setting [2]), the IC50 was 0.046 ± 0.005 µM.

For `O=C(CO)N[C@@H](CO)C(=O)Nc1cccc(-c2ccc(Oc3ccc(F)cc3)cc2)n1` [Compound 60, (S)-N-{6-[4-(4-Fluoro-phenoxy)-phenyl]-pyridin-2-yl}-3-hydroxy-2-(2-hydroxy-acetylamino)-propionamide], at hNav1.7, the Ki was 0.113 ± 0.05 µM and the Kd was determined as 4.94 ± 0.81 µM. Besides, the IC50 at human Nav1.7 (setting [1]) was 0.46 ± 0.08 µM.

Regarding `CC(=O)N1CCC(C(=O)N[C@@H](Cc2c[nH]cn2)C(=O)Nc2cccc(-c3ccc(Oc4ccc(F)cc4)cc3)n2)CC1` [Compound 34, (S)-1-acetyl-N-(1-((6-(4-(4-fluorophenoxy)phenyl)pyridin-2-yl)amino)-3-(1H-imidazol-4-yl)-1-oxopropan-2-yl)piperidine-4-carboxamide], the IC50 on human Nav1.7 (setting [2]) stood at 0.58 ± 0.05 µM.

As for `CCC(=O)N[C@@H](Cc1cn(C)cn1)C(=O)Nc1cccc(-c2ccc(Oc3ccc(F)cc3)cc2)n1` [Compound 81, (S)-N-(6-(4-(4-fluorophenoxy)phenyl)pyridin-2-yl)-3-(1-methyl-1H-imidazol-4-yl)-2-propionamidopropanamide], the half-maximal inhibitory concentration (IC50) at human Nav1.7 (setting [2]) stood at 0.064 ± 0.01 µM.

As usually defined, the IC50 is the midpoint of a concentration-inhibition curve.
